Experimental data: publication PMC7413254 (Nature Communications, 2020)
Read-outs that look alike come from different tables or passages of the source.

Key:
C2^GC03 parasites = test: P. falciparum proliferation assay; assay type: cell-based; details: Plasmodium falciparum
Procedure: (§1) Parasite proliferation was measured in 96-well plates using a fluorescent DNA-intercalating dye[68],[69]. Synchronous ring-stage parasite cultures (~1% haematocrit and 1% parasitaemia) were incubated with different concentrations of the test compound for 72 h at 37 °C and under reduced O2 conditions. The assay was terminated by freezing and thawing the samples, after which 100 μL of SYBR Safe DNA Gel Stain (Molecular Probes; 0.2 μL/mL) in a lysis buffer (20 mM Tris-HCl, 5 mM EDTA, 0.008% (w/v) saponin and 0.08% (v/v) Triton X-100; pH 7.5) was added to each well. The fluorescence from each well was measured using a Tecan Infinite M1000 PRO microplate reader (excitation wavelength 490 nm; emission wavelength 520 nm). The fluorescence values for the wells containing the highest concentration of the compound were averaged and this value was then subtracted from each of the well values obtained for that 96-well plate. The level of parasite proliferation in the presence of each compound concentration was expressed as a percentage of the proliferation measured in the absence of the compound. The IC50s were determined in SigmaPlot Windows Version 11.0 by a least-squares fit of the equation y = a/[1 + ([compound]/IC50)^c] to the data, where y is the percent parasite proliferation, a is the maximum change in the percent parasite proliferation, and c is a fitted constant. In all cases, five independent experiments were performed (on different days), and within each experiment measurements were averaged from three replicates.

PfNT1 = biological target: T1, PfNT1 (Plasmodium falciparum, UniProt Q8IDM6); test: [3H]CQ uptake into Xenopus oocytes (ion and membrane-potential dependence, Supplementary Fig. 2); assay type: cell-based
T1 construct: expressed in transfected cells; host or cells: Xenopus laevis oocytes (stage V-VI), cRNA-injected

C6^7G8 parasites = test: P. falciparum proliferation assay; assay type: cell-based, Plasmodium falciparum
Procedure: as §1

7G8 strain = test: P. falciparum proliferation assay; assay type: cell-based, Plasmodium falciparum
Procedure: as §1

C4^Dd2 parasites = test: P. falciparum proliferation assay; assay type: cell-based, Plasmodium falciparum
Procedure: as §1

3D7 strain = test: P. falciparum proliferation assay; assay type: cell-based, Plasmodium falciparum
Procedure: as §1

Dd2 strain = test: P. falciparum proliferation assay; assay type: cell-based, Plasmodium falciparum
Procedure: as §1

PfCRT^Ecu1110 = test: cell-based; assay type: cell-based, Plasmodium falciparum; details: for PfCRT-mediated [3H]CQ transport, trans-stimulation (% PfCRTEcu1110 control): PfCRTEcu1110 oocytes, normalised to oocyte type control; for [3H]CQ transport (% PfCRTDd2 control), trans-stimulation, PfCRTEcu1110: PfCRT-mediated component (background subtracted), sheet title says normalised to PfCRTDd2 control, mean ± SEM, SEM
Procedure, shortened: (§2)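 Transport measured in Xenopus oocytes expressing the transporters, 1.5 h at 27.5 °C in ND96 pH 5.5 unless noted. For trans-stimulation, VF-6 injected in 25 nL ND96 at pH 5.0–7.0 or Na^+-free (choline) buffer; intracellular levels based on ~400 nL oocyte volume. Ten oocytes per treatment, ≥4 experiments.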

PfCRT^Dd2 = test: cell-based; assay type: cell-based, Plasmodium falciparum; details: for PfCRT-mediated [3H]CQ transport, trans-stimulation (% PfCRTDd2 control): PfCRTDd2 oocytes, normalised to oocyte type control; for [3H]CQ transport (% PfCRTDd2 control), trans-stimulation, PfCRTDd2: PfCRT-mediated component (background subtracted), mean ± SEM, SEM
Procedure, shortened: as §2

[1] = Plasmodium falciparum, 72 h, read-out: IC50 (nM), parasite proliferation, + 1 μM VP, SEM
[2] = Plasmodium falciparum, DD2, 72 h, read-out: IC50 (nM), parasite proliferation, + 1 μM VP, SEM
[3] = [test solute]i = 5 mM (intracellular)
[4] = [test solute]i = 45 mM (intracellular; 30 mM for some solutes due to solubility)
[5] = [test solute]i = 5 mM (injected)
[6] = [test solute]i = 45 mM (30 mM for some solutes due to solubility)

T1 sequence (Q8IDM6 whole entry): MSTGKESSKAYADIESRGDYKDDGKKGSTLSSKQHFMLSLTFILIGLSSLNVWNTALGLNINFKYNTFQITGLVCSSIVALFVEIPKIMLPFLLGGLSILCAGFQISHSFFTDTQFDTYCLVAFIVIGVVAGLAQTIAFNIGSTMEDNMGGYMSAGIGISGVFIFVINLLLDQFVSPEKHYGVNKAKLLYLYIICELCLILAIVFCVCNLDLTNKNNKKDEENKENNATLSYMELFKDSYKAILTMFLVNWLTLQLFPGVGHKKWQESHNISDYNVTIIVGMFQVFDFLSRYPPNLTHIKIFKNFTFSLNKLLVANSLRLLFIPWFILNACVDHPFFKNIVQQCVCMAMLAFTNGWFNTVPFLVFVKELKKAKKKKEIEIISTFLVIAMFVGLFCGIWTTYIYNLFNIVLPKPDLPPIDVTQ

In the case of `CCN(CC)CCCC(C)Nc1ccnc2cc(Cl)ccc12` (centres unmarked) [CQ, chloroquine, reference compound], the IC50 (C2^GC03 parasites; 72 h, read-out: IC50 (nM), parasite proliferation, + 1 μM VP, SEM) is reported as 26 ± 1.3 nM, the IC50 (C2^GC03 parasites; C2GC03, 72 h, 37 °C, SYBR Safe, mean ± SEM, n = 5, read-out: IC50 (nM), parasite proliferation, Control) is reported as 27 ± 1.6 nM and the “[3H]CQ transport, PfNT1” value (PfNT1; 0 mM Ca2+, Experiment 1) is reported as 3.03 % PfCRTDd2 control. The “[3H]CQ transport, PfNT1” value (PfNT1; 0 mM Ca2+, Experiment 2) was 3.55 % PfCRTDd2 control, the “[3H]CQ transport, PfNT1” value (PfNT1; 0 mM Ca2+, Experiment 3) was 3.65 % PfCRTDd2 control and the “[3H]CQ transport, PfNT1” value (PfNT1; 0 mM Ca2+, Experiment 4) was 3.28 % PfCRTDd2 control. The “[3H]CQ transport, PfNT1” value (PfNT1; 0 mM Cl-, Experiment 1) was 3.68 % PfCRTDd2 control, the “[3H]CQ transport, PfNT1” value (PfNT1; 0 mM Cl-, Experiment 2) was 3.72 % PfCRTDd2 control and the “[3H]CQ transport, PfNT1” value (PfNT1; 0 mM Cl-, Experiment 3) was 4.16 % PfCRTDd2 control. For the same compound, the “[3H]CQ transport, PfNT1” value (PfNT1; 0 mM Cl-, Experiment 4) was 3.75 % PfCRTDd2 control, the “[3H]CQ transport, PfNT1” value (PfNT1; 0 mM Na+, Experiment 1) was 3.67 % PfCRTDd2 control and the “[3H]CQ transport, PfNT1” value (PfNT1; 0 mM Na+, Experiment 2) was 3.32 % PfCRTDd2 control. For the same compound, the “[3H]CQ transport, PfNT1” value (PfNT1; 0 mM Na+, Experiment 3) was 3.62 % PfCRTDd2 control, the “[3H]CQ transport, PfNT1” value (PfNT1; 0 mM Na+, Experiment 4) was 3.15 % PfCRTDd2 control and the “[3H]CQ transport, PfNT1” value (PfNT1; 1 mM Ca2+, Experiment 1) was 4.25 % PfCRTDd2 control. For the same compound, the “[3H]CQ transport, PfNT1” value (PfNT1; 1 mM Ca2+, Experiment 2) was 3.56 % PfCRTDd2 control, the “[3H]CQ transport, PfNT1” value (PfNT1; 1 mM Ca2+, Experiment 3) was 3.56 % PfCRTDd2 control and the “[3H]CQ transport, PfNT1” value (PfNT1; 1 mM Ca2+, Experiment 4) was 4.24 % PfCRTDd2 control. For the same compound, the “[3H]CQ transport, PfNT1” value (PfNT1; 3 mM Ca2+, Experiment 1) was 3.29 % PfCRTDd2 control, the “[3H]CQ transport, PfNT1” value (PfNT1; 3 mM Ca2+, Experiment 2) was 3.28 % PfCRTDd2 control and the “[3H]CQ transport, PfNT1” value (PfNT1; 3 mM Ca2+, Experiment 3) was 3.36 % PfCRTDd2 control. The “[3H]CQ transport, PfNT1” value (PfNT1; 3 mM Ca2+, Experiment 4) was 3.62 % PfCRTDd2 control, the “[3H]CQ transport, PfNT1” value (PfNT1; 5 mM Ca2+, Experiment 1) was 3.95 % PfCRTDd2 control and the “[3H]CQ transport, PfNT1” value (PfNT1; 5 mM Ca2+, Experiment 2) was 3.75 % PfCRTDd2 control. The “[3H]CQ transport, PfNT1” value (PfNT1; 5 mM Ca2+, Experiment 3) was 3.96 % PfCRTDd2 control, the “[3H]CQ transport, PfNT1” value (PfNT1; 5 mM Ca2+, Experiment 4) was 3.37 % PfCRTDd2 control and the IC50 (C6^7G8 parasites; [1]) was 25 ± 0.2 nM. For the same compound, the IC50 (C6^7G8 parasites; Plasmodium falciparum, C67G8, 72 h, 37 °C, SYBR Safe, mean ± SEM, n = 5, read-out: IC50 (nM), parasite proliferation, Control) was 87 ± 2.1 nM, the IC50 (7G8 strain; [1]) was 28 ± 1.6 nM and the IC50 (7G8 strain; Plasmodium falciparum, 72 h, read-out: IC50 (nM), parasite proliferation, Control, SEM) was 94 ± 4.4 nM. The IC50 (C4^Dd2 parasites; [2]) was 26 ± 0.1 nM, the IC50 (3D7 strain; Plasmodium falciparum, 3D7, 72 h, 37 °C, SYBR Safe, mean ± SEM, n = 5, read-out: IC50 (nM), parasite proliferation, Control) was 25 ± 1.1 nM and the IC50 (3D7 strain; Plasmodium falciparum, 3D7, 72 h, read-out: IC50 (nM), parasite proliferation, + 1 μM VP, SEM) was 24 ± 0.9 nM. For the same compound, the IC50 (Dd2 strain; [2]) was 25 ± 1 nM.

`N[C@@H](Cc1c[nH]cn1)C(=O)O` [L-histidine] was tested, and the “PfCRT-mediated [3H]CQ transport, trans-stimulation (% PfCRTEcu1110 control)” value (“PfCRT-mediated … (% PfCRTEcu1110 control)” for short) (PfCRT^Ecu1110; [3]) was 98 ± 2.8 % PfCRTEcu1110 control, the “PfCRT-mediated … (% PfCRTEcu1110 control)” value (PfCRT^Ecu1110; [4]) was 97 ± 4.1 % PfCRTEcu1110 control and the “[3H]CQ transport (% PfCRTDd2 control), trans-stimulation, PfCRTEcu1110” value (PfCRT^Ecu1110; [5]) was 33 ± 2.2 % PfCRTEcu1110 control. For the same compound, the “[3H]CQ transport (% PfCRTDd2 control), trans-stimulation, PfCRTEcu1110” value (PfCRT^Ecu1110; [6]) was 32 ± 1.6 % PfCRTEcu1110 control, the “PfCRT-mediated [3H]CQ transport, trans-stimulation (% PfCRTDd2 control)” value (shortened to “PfCRT-mediated … (% PfCRTDd2 control)”) (PfCRT^Dd2; [3]) was 99 ± 3.9 % PfCRTDd2 control and the “PfCRT-mediated … (% PfCRTDd2 control)” value (PfCRT^Dd2; [4]) was 95 ± 2.5 % PfCRTDd2 control. For the same compound, the “[3H]CQ transport (% PfCRTDd2 control), trans-stimulation, PfCRTDd2” value (PfCRT^Dd2; [5]) was 99 ± 3.9 % PfCRTDd2 control and the “[3H]CQ transport (% PfCRTDd2 control), trans-stimulation, PfCRTDd2” value (PfCRT^Dd2; [6]) was 95 ± 2.5 % PfCRTDd2 control.

With `CSCC[C@H](N)C(=O)O` [L-methionine] the “PfCRT-mediated … (% PfCRTEcu1110 control)” value (PfCRT^Ecu1110; [3]) was 96 ± 1.4 % PfCRTEcu1110 control, the “PfCRT-mediated … (% PfCRTEcu1110 control)” value (PfCRT^Ecu1110; [4]) was 98 ± 4.6 % PfCRTEcu1110 control and the “[3H]CQ transport (% PfCRTDd2 control), trans-stimulation, PfCRTEcu1110” value (PfCRT^Ecu1110; [5]) was 32 ± 1.1 % PfCRTEcu1110 control. For the same compound, the “[3H]CQ transport (% PfCRTDd2 control), trans-stimulation, PfCRTEcu1110” value (PfCRT^Ecu1110; [6]) was 33 ± 1.3 % PfCRTEcu1110 control, the “PfCRT-mediated … (% PfCRTDd2 control)” value (PfCRT^Dd2; [3]) was 98 ± 4.1 % PfCRTDd2 control and the “PfCRT-mediated … (% PfCRTDd2 control)” value (PfCRT^Dd2; [4]) was 97 ± 3.5 % PfCRTDd2 control. The “[3H]CQ transport (% PfCRTDd2 control), trans-stimulation, PfCRTDd2” value (PfCRT^Dd2; [5]) was 98 ± 4.1 % PfCRTDd2 control and the “[3H]CQ transport (% PfCRTDd2 control), trans-stimulation, PfCRTDd2” value (PfCRT^Dd2; [6]) was 97 ± 3.5 % PfCRTDd2 control.

Compound `CC(C)(C)NC(=O)[C@@H]1C[C@@H]2CCCC[C@@H]2CN1C[C@@H](O)[C@H](Cc1ccccc1)NC(=O)[C@H](CC(N)=O)NC(=O)c1ccc2ccccc2n1` [Saquinavir, saquinavir, reference compound] has an IC50 (C2^GC03 parasites; 72 h, read-out: IC50 (μM), parasite proliferation, + 1 μM VP, SEM) of 5100 ± 200 nM, an IC50 (C2^GC03 parasites; C2GC03, 72 h, 37 °C, SYBR Safe, mean ± SEM, n = 5, read-out: IC50 (μM), parasite proliferation, Control) of 6800 ± 400 nM and an IC50 (C6^7G8 parasites; Plasmodium falciparum, C67G8, 72 h, 37 °C, SYBR Safe, mean ± SEM, n = 5, read-out: IC50 (μM), parasite proliferation, Control) of 4200 ± 400 nM. It also gave an IC50 (C6^7G8 parasites; read-out: IC50 (μM), parasite proliferation, + 1 μM VP, C67G8, + 1 μM verapamil, 72 h, mean ± SEM, n = 5) of 2300 ± 300 nM, an IC50 (7G8 strain; Plasmodium falciparum, 72 h, read-out: IC50 (μM), parasite proliferation, Control, SEM) of 4700 ± 100 nM and an IC50 (7G8 strain; read-out: IC50 (μM), parasite proliferation, + 1 μM VP, 7G8, + 1 μM verapamil, 72 h, mean ± SEM, n = 5) of 2200 ± 100 nM. The IC50 (C4^Dd2 parasites; Plasmodium falciparum, DD2, C4Dd2, 72 h, 37 °C, SYBR Safe, mean ± SEM, n = 5, read-out: IC50 (μM), parasite proliferation, Control) was 3500 ± 500 nM, the IC50 (C4^Dd2 parasites; read-out: IC50 (μM), parasite proliferation, + 1 μM VP, C4Dd2, + 1 μM verapamil, 72 h, mean ± SEM, n = 5) was 1900 ± 100 nM and the IC50 (3D7 strain; Plasmodium falciparum, 3D7, 72 h, 37 °C, SYBR Safe, mean ± SEM, n = 5, read-out: IC50 (μM), parasite proliferation, Control) was 7400 ± 300 nM. The IC50 (3D7 strain; read-out: IC50 (μM), parasite proliferation, + 1 μM VP, SEM) was 5900 ± 600 nM, the IC50 (Dd2 strain; Plasmodium falciparum, DD2, 72 h, read-out: IC50 (μM), parasite proliferation, Control, SEM) was 3300 ± 200 nM and the IC50 (Dd2 strain; read-out: IC50 (μM), parasite proliferation, + 1 μM VP, Dd2, + 1 μM verapamil, 72 h, mean ± SEM, n = 5) was 2100 ± 300 nM.
